The source of these data is publication PMC4992173, “Divergent synthesis and identification of the cellular targets of deoxyelephantopins” (Nature Communications, 2016).

The target of this assay is T1, PPARγ (Homo sapiens, UniProt P37231).
T1 sequence (P37231 1-505): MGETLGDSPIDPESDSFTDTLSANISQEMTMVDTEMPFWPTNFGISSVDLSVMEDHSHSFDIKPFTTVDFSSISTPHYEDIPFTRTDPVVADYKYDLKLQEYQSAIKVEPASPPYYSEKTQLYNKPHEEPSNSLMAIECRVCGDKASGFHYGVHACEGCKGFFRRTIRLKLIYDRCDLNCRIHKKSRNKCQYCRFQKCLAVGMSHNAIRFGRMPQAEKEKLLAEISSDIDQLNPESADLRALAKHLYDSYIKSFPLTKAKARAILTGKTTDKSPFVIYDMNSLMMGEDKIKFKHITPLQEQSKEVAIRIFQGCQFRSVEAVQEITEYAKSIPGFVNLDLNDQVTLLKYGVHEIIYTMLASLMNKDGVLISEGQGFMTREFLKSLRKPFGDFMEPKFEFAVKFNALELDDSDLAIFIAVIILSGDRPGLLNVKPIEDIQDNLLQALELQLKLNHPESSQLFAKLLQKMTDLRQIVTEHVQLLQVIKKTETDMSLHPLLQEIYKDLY
The experiment in a line: IAA-competitive labelling of cysteines on PPARγ (LC-MS/MS). The assay is classed as binding. To be noted: 100 µM, 1 h. The text has this: Finally, we sought to understand the molecular basis for PPARγ binding by the synthetic analogues of deoxyelephantopin through identification of the precise covalently modified amino acid site. There is literature precedent for oxidized fatty acids containing an α,β-unsaturated ketone to form a covalent bond with a cysteine in the ligand-binding site of PPARγ[53]. More recently, synthetic ligands binding reversibly to a distinct site were identified. […] Bearing in mind that the structurally simplified, and thus less prone to MS/MS fragmentation, probe 23c binds PPARγ as efficiently as 24c (Supplementary Fig. 13), we treated the recombinant nuclear receptor with the former compound, digested the protein and analysed the resulting peptides by LC–MS/MS. […] While zinc fingers respond to oxidative stress through reaction at cysteines[55][56] and have been targeted by small molecules forming disulfide bridges, to the best of our knowledge, deoxyelephantopin is the first example of a small molecule that engages a zinc finger through a Michael addition. The success of Michael acceptors as a cysteine trap in current clinical development of covalent inhibitors points to the privileged reactivity profile of this moiety. Having identified the exact binding site, we then performed covalent docking of 19a using the protein–ligand docking program GOLD. […] Following the docking result, we mutated these two residues, transiently expressed the wild-type and the two PPARγ mutant forms in 293T cells and performed gel-based competitive experiments to determine relative binding affinities for 19a. […] Finally, it is interesting to note that SILAC experiment led to the identification of ZNF346, another zinc finger motif-containing protein. […]
H2O (Buffer A) and 0.1% FA in MeCN (Buffer B). Peptides were eluted into the mass spectrometer at a flow rate of 300 nL/min. over a 240 min. linear gradient (3-35% Buffer B) at 50 °C. Data was acquired in data-dependent mode (top- N = ’ […]
and isotope exclusion was enabled.
MaxQuant analysis. The MS data was analyzed with MaxQuant (V1.5.2.8) and searched against the human proteome (Uniprot, 89,649 entries) and a common list of contaminants (included in MaxQuant). The first peptide search tolerance was set to 20 ppm, 10 ppm was used for the main peptide search and fragment mass tolerance was set to 0.02 Da. The false discovery rate for peptides, proteins and sites identification was set to 1%. The minimum peptide length was set to 6 amino acids and peptide re-quantification, label-free quantification (MaxLFQ) and “ ” were enabled. The minimal number of peptides per protein was set to two. Oxidized methionines and N-terminal acetylation were searched as variable modifications and carbamidomethylation of cysteines was searched as a fixed modification. For SILAC experiments 13C6 L-lysine and 13C6 15N4 L-arginine were set as heavy isotope labels and 12C6 L-lysine and 12C6 14N4 L-arginine as light isotope labels. […]
IAA competition of 23c, 24c and DEP h ARγ. γ
(500 ng in 9 µL PBS) was treated with either 100 µM DEP, 23c, 24c or DMSO (1 µL of 10x stock in DMSO) for one hour. Samples were denatured with 6 M urea in 50 mM NH4HCO3, […]
in the dark. Samples were diluted to 2 M urea with 50 mM NH4HCO3, and digested with trypsin . μ . μ μ 2 for 12 hours at 37 °C. Samples were acidified to a final concentration of 5% acetic acid, desalted over a self-packed C18 spin column and dried. Samples were resuspended in 0.1% FA in water and analyzed by LC-MS/MS (see above). MS data was analyzed in MaxQuant (see above). […]

Where [1] appears, read: peptide NKCQYCR (contains Cys190).

Regarding `C#CCC[C@H](O)[C@H]1C(=C)C(=O)O[C@@H]1c1ccccc1` [23c], the “competition of iodoacetamide labelling of the Cys190-containing tryptic peptide” value (shortened to “competition”) is more than 75%. Besides, the “Ratio compound/DMSO (IAA-labelled peptide)” value (“Ratio compound/DMSO” for short) (peptide ASGFHYGVHACEGCK) was determined as 0.79. For the setting “peptide CLAVGMSHNAIR”, the “Ratio compound/DMSO” value came to 1.14. For the same compound, the “Ratio compound/DMSO” value (peptide IFQGCQFR) is 0.63. Also, the “Ratio compound/DMSO” value (peptide LKLIYDRCDLNCR) is listed as 0.83. The “Ratio compound/DMSO” value under setting [1] came out at 0.25. The “Ratio compound/DMSO” value (peptide TQLYNKPHEEPSNSLMAIECR) is 1.52. Moreover, the “Ratio compound/DMSO” value (peptide VCGDKASGFHYGVHACEGCK) turned out to be 0.68.

On to `C#CCC[C@H](OC(=O)C(=C)C)[C@H]1C(=C)C(=O)O[C@@H]1c1ccccc1` [24c], for which the “competition” value is more than 75%. The “Ratio compound/DMSO” value (peptide ASGFHYGVHACEGCK) amounted to 0.72. Further, the “Ratio compound/DMSO” value (peptide CLAVGMSHNAIR) came to 1.40. Also, the “Ratio compound/DMSO” value (peptide IFQGCQFR) was 0.60. Moreover, the “Ratio compound/DMSO” value (peptide LKLIYDRCDLNCR) was found to be 0.87. In addition, the “Ratio compound/DMSO” value under setting [1] is recorded as 0.08. Moreover, for the setting “peptide TQLYNKPHEEPSNSLMAIECR”, the “Ratio compound/DMSO” value came out at 1.72. For the same compound, the “Ratio compound/DMSO” value (peptide VCGDKASGFHYGVHACEGCK) is reported as 0.65.

In the case of `C=C(C)C(=O)O[C@H]1CC2=C[C@@H](C/C(C)=C/[C@H]3OC(=O)C(=C)[C@H]13)OC2=O` [deoxyelephantopin], the “competition” value is on record as more than 75%. The “Ratio compound/DMSO” value (peptide ASGFHYGVHACEGCK) is listed as 1.05. Besides, for the setting “peptide CLAVGMSHNAIR”, the “Ratio compound/DMSO” value is 0.94. The “Ratio compound/DMSO” value (peptide IFQGCQFR) turned out to be 0.73. Moreover, the “Ratio compound/DMSO” value (peptide LKLIYDRCDLNCR) is 0.96. For the same compound, the “Ratio compound/DMSO” value under setting [1] stood at 0.00. In addition, the “Ratio compound/DMSO” value (peptide TQLYNKPHEEPSNSLMAIECR) amounted to 0.94. Besides, the “Ratio compound/DMSO” value (peptide VCGDKASGFHYGVHACEGCK) worked out at 0.81.
